Values after ≈ are worked out from the molar mass of the structure shown.
What was measured:
Type in all cases: functional
[1] = Antioxidant activity assessed as iron chelating activity after 10 min by spectrophotometeric analysis
[2] = Antioxidant activity assessed as reduction of Fe3+ to Fe2+ after 20 min by spectrophotometeric analysis
[3] = system: Radical scavenging activity; assay: Antioxidant activity assessed as DPPH free radical scavenging activity after 30 min by spectrophotometeric analysis
[4] = Antioxidant activity assessed as H2O2 scavenging activity after 10 min by spectrophotometeric analysis

Structure (SMILES)	IC50 [1] [µg/mL]	IC50 [2] [µg/mL]	IC50 [3] [µg/mL]	IC50 [4] [µg/mL]	Activity [3]	Activity [4]
COc1ccc(/C=C/C(=O)c2ccc(O)cc2O)cc1OC	166.73 (≈ 555 µM)	134.45 (≈ 448 µM)	35.2 (≈ 117 µM)	70.1 (≈ 233 µM)	Dose-dependent effect	Dose-dependent effect
COc1ccc(/C=C/C(=O)c2cc(O)ccc2O)cc1OC	159.22 (≈ 530 µM)	111.79 (≈ 372 µM)	132.22 (≈ 440 µM)	89.59 (≈ 298 µM)	Dose-dependent effect	Dose-dependent effect
CN(C)c1ccc(/C=C2\Oc3cc(O)ccc3C2=O)cc1	179.33 (≈ 637 µM)	70.1 (≈ 249 µM)	109.92 (≈ 391 µM)	193.91 (≈ 689 µM)	Dose-dependent effect	Dose-dependent effect
O=C1/C(=C/c2ccc(Cl)cc2)Oc2cc(O)ccc21 [6-HYDROXY-4'-CHLORO AURONE]	179.18 (≈ 657 µM)	188.31 (≈ 691 µM)	266.12 (≈ 976 µM)	178.13 (≈ 653 µM)	Dose-dependent effect	Dose-dependent effect
COc1ccc(/C=C2\Oc3cc(O)ccc3C2=O)cc1OC	213.83 (≈ 717 µM)	168.23 (≈ 564 µM)	173.29 (≈ 581 µM)	248.16 (≈ 832 µM)	Dose-dependent effect	Dose-dependent effect
CN(C)c1ccc(/C=C/C(=O)c2ccc(O)cc2O)cc1	140.16 (≈ 495 µM)	53.6 (≈ 189 µM)	65.8 (≈ 232 µM)	135.88 (≈ 480 µM)	Dose-dependent effect	Dose-dependent effect

Now from value to molecule, other results behind:

IC50 [1] [µg/mL]	IC50 [2] [µg/mL]	IC50 [3] [µg/mL]	IC50 [4] [µg/mL]	Structure (SMILES)	Activity [3]	Activity [4]
149.98 (≈ 533 µM)	64.16 (≈ 228 µM)	243 (≈ 864 µM)	174.07 (≈ 619 µM)	CN(C)c1ccc(/C=C2\Oc3ccc(O)cc3C2=O)cc1	Dose-dependent effect	Dose-dependent effect
159.97 (≈ 582 µM)	155.87 (≈ 567 µM)	264.95 (≈ 964 µM)	129.02 (≈ 470 µM)	O=C(/C=C/c1ccc(Cl)cc1)c1ccc(O)cc1O	Dose-dependent effect	Dose-dependent effect
185.05 (≈ 620 µM)	151.43 (≈ 508 µM)	222.19 (≈ 745 µM)	206.57 (≈ 693 µM)	COc1ccc(/C=C2\Oc3ccc(O)cc3C2=O)cc1OC [5-HYDROXY-3',4'-DIMETHOXY AURONE]	Dose-dependent effect	Dose-dependent effect
126.12 (≈ 716 µM)	53.24 (≈ 302 µM)	98.77 (≈ 561 µM)	445.92 (≈ 2530 µM)	O=C1O[C@H]([C@@H](O)CO)C(O)=C1O [ASCORBIC ACID]	–	–
90.81 (≈ 321 µM)	47.79 (≈ 169 µM)	24.32 (≈ 85.8 µM)	153.85 (≈ 543 µM)	CN(C)c1ccc(/C=C/C(=O)c2cc(O)ccc2O)cc1	Dose-dependent effect	Dose-dependent effect
